This is an account of results in patent US10995101B2, “2-oxo-thiazole derivatives as A2A inhibitors and compounds for use in the treatment of cancers” (iTeos Therapeutics SA, priority 2017, dated 2021).

Molecules are shown by their SMILES.

In this test the target is A2A receptor (Homo sapiens, UniProt P29274). Briefly: Inhibition of cAMP production in HEK cells. In kind it is cell-based. Conditions: HEK-293 cells with A2A receptor. The procedure: When the A2A receptor is activated, is induces the production of cAMP.
Sequence of A2A receptor (P29274 whole entry): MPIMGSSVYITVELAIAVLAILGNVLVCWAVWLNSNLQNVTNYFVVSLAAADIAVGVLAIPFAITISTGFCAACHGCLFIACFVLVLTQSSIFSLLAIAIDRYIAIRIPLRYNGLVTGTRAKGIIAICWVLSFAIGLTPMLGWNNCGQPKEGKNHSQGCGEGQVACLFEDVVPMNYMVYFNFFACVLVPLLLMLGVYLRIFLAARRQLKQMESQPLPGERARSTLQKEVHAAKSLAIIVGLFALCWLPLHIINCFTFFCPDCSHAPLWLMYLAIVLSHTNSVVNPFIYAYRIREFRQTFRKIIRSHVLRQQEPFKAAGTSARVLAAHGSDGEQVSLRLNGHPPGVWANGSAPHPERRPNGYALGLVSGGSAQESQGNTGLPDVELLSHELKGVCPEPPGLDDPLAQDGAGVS
HEK-293 cells with a stable transfection of A2A receptor were bought from PerkinElmer® (# ES-011-C). […] Fresh media without the selection marker was added on the day immediately before the experiment to stop selection pressure.
Stimulation buffer b) mimics the human situation by increasing the amount of albumin present in the assay.
Compounds of the present invention were diluted 100× in either of the buffers depending on the assay performed. […] The total volume of the reaction was 20 μl (10 μl of cells, 5 μl of antagonist and 5 μl of agonist). The reaction was finalized by adding 10 μl of 4× EU-cAMP tracer working solution and 10 μl of 4× ULight-anti-cAMP working solution. The TR-FRET signal was measured after 1 hour using a Spectramax Paradigm (Molecular Devices).
Background: Cyclic AMP is a second messenger, typically raised through Gs and lowered through Gi signalling.

Where [1] appears, read: IC50 (nM) (3 nM NECA as agonist, 0.1% BSA), 3 nM NECA as agonist, 0.1% BSA.
Where [2] appears, read: IC50 (nM) (5 nM NECA as agonist, 2% HSA), 5 nM NECA as agonist, 2% HSA.
[3] abbreviates: IC50 (nM) (5 μM Adenosine as agonist, 2.0% HSA), 5 μM Adenosine as agonist, 2.0% HSA.

A word on the IC50: it is the concentration at which inhibition is half-maximal. Consider `C[C@H](Oc1ccc(N2CCN(CCn3c(=O)sc4c3nc(N)n3nc(-c5ccco5)nc43)CC2)c(F)c1)C(=O)O` (single isomer, unassigned) [Compound 38], for which the IC50 by setting is: under setting [1], 0.3 nM; under setting [2], 9 nM; under setting [3], 552 nM.
Regarding `C[C@@H](Oc1ccc(N2CCN(CCn3c(=O)sc4c3nc(N)n3nc(-c5ccco5)nc43)CC2)c(F)c1)C(=O)O` (single isomer, unassigned) [Compound 53], the IC50 was 4 nM under setting [2] and 127 nM under setting [3].
`C[C@H](Oc1cc(N2CCN(CCn3c(=O)sc4c3nc(N)n3nc(-c5ccco5)nc43)CC2)c(F)cc1F)C(=O)O` (single isomer, unassigned) [Compound 60]: the IC50 runs as follows: under setting [1], 0.8 nM; under setting [2], 4 nM; under setting [3], 240 nM.
As to `C[C@@H](Oc1cc(N2CCN(CCn3c(=O)sc4c3nc(N)n3nc(-c5ccco5)nc43)CC2)c(F)cc1F)C(=O)O` (single isomer, unassigned) [Compound 61], the IC50 was found to be 0.9 nM under setting [1], 15 nM under setting [2] and 810 nM under setting [3].
In the case of `NC(=O)COc1ccc(N2CCN(CCn3c(=O)sc4c3nc(N)n3nc(-c5ccco5)nc43)CC2)cc1` [Compound 11, 2-(4-(4-(2-(5-amino-8-(furan-2-yl)-2-oxothiazolo[5,4-e][1,2,4]triazolo[1,5-c]pyrimidin-3(2H)-yl)ethyl)piperazin-1-yl)phenoxy)acetamide], the IC50 under setting [1] was 2 nM.
Take `Nc1nc2c(sc(=O)n2CCN2CCN(c3ccc(OCC(O)CO)cc3)CC2)c2nc(-c3ccco3)nn12` (stereo not drawn) [Compound 12, 5-amino-3-(2-(4-(4-(2,3-dihydroxypropoxy)phenyl)piperazin-1-yl)ethyl)-8-(furan-2-yl)thiazolo[5,4-e][1,2,4]triazolo[1,5-c]pyrimidin-2(3H)-one]: the IC50 under setting [1] is 14.2 nM.
Consider `NCCOc1ccc(N2CCN(CCn3c(=O)sc4c3nc(N)n3nc(-c5ccco5)nc43)CC2)cc1` [Compound 13, 5-amino-3-(2-(4-(4-(2-aminoethoxy)phenyl)piperazin-1-yl)ethyl)-8-(furan-2-yl)thiazolo[5,4-e][1,2,4]triazolo[1,5-c]pyrimidin-2(3H)-one], for which the IC50 is 0.6 nM under setting [1], 2 nM under setting [2] and 63 nM under setting [3].
`NC(=O)c1ccc(N2CCN(CCn3c(=O)sc4c3nc(N)n3nc(-c5ccco5)nc43)CC2)cc1` [Compound 14, 4-(4-(2-(5-amino-8-(furan-2-yl)-2-oxothiazolo[5,4-e][1,2,4]triazolo[1,5-c]pyrimidin-3(2H)-yl)ethyl)piperazin-1-yl)benzamide]: the half-maximal inhibitory concentration (IC50) runs as follows: under setting [1], 0.7 nM; under setting [2], 11 nM; under setting [3], 567 nM.
For the compound `CNC(=O)c1ccc(N2CCN(CCn3c(=O)sc4c3nc(N)n3nc(-c5ccco5)nc43)CC2)cc1` [Compound 15, 4-(4-(2-(5-amino-8-(furan-2-yl)-2-oxothiazolo[5,4-e][1,2,4]triazolo[1,5-c]pyrimidin-3(2H)-yl)ethyl)piperazin-1-yl)-N-methylbenzamide], the IC50 under setting [1] came out at 2.6 nM.
`Nc1nc2c(sc(=O)n2CCN2CCN(c3ccc(OCCN4CCOCC4)cc3)CC2)c2nc(-c3ccco3)nn12` [Compound 16, 5-amino-8-(furan-2-yl)-3-(2-(4-(4-(2-morpholinoethoxy)phenyl)piperazin-1-yl)ethyl)thiazolo[5,4-e][1,2,4]triazolo[1,5-c]pyrimidin-2(3H)-one]: the IC50 reads like this: under setting [1], 3.2 nM; under setting [2], 14 nM.
Take `CN(C)CCOc1ccc(N2CCN(CCn3c(=O)sc4c3nc(N)n3nc(-c5ccco5)nc43)CC2)cc1` [Compound 17, 5-amino-3-(2-(4-(4-(2-(dimethylamino)ethoxy)phenyl)piperazin-1-yl)ethyl)-8-(furan-2-yl)thiazolo[5,4-e][1,2,4]triazolo[1,5-c]pyrimidin-2(3H)-one]: the IC50 under setting [1] was determined as 1 nM.
On to `Nc1nc2c(sc(=O)n2CCN2CCN(c3ccc(S(N)(=O)=O)cc3)CC2)c2nc(-c3ccco3)nn12` [Compound 18, 4-(4-(2-(5-amino-8-(furan-2-yl)-2-oxothiazolo[5,4-e][1,2,4]triazolo[1,5-c]pyrimidin-3(2H)-yl)ethyl)piperazin-1-yl)benzenesulfonamide], for which the IC50 was found to be 1.7 nM under setting [1], 85 nM under setting [2] and 2170 nM under setting [3].
The compound `CNS(=O)(=O)c1ccc(N2CCN(CCn3c(=O)sc4c3nc(N)n3nc(-c5ccco5)nc43)CC2)cc1` [Compound 19, 4-(4-(2-(5-amino-8-(furan-2-yl)-2-oxothiazolo[5,4-e][1,2,4]triazolo[1,5-c]pyrimidin-3(2H)-yl)ethyl)piperazin-1-yl)-N-methylbenzenesulfonamide] came in with an IC50 under setting [1] of 2.6 nM.
Turning to `CS(=O)(=O)c1ccc(N2CCN(CCn3c(=O)sc4c3nc(N)n3nc(-c5ccco5)nc43)CC2)cc1` [Compound 20, 5-amino-8-(furan-2-yl)-3-(2-(4-(4-(methylsulfonyl)phenyl)piperazin-1-yl)ethyl)thiazolo[5,4-e][1,2,4]triazolo[1,5-c]pyrimidin-2(3H)-one], the IC50 by setting is: under setting [1], 1.9 nM; under setting [2], 352 nM.
As for `C[S+]([O-])c1ccc(N2CCN(CCn3c(=O)sc4c3nc(N)n3nc(-c5ccco5)nc43)CC2)cc1` (stereo not drawn) [Compound 21, 5-amino-8-(furan-2-yl)-3-(2-(4-(4-(methylsulfinyl)phenyl)piperazin-1-yl)ethyl)thiazolo[5,4-e][1,2,4]triazolo[1,5-c]pyrimidin-2(3H)-one], the IC50 is, setting by setting: under setting [1], 1.6 nM; under setting [2], 52 nM; under setting [3], 1310 nM.
As to `NC(=O)c1cccc(N2CCN(CCn3c(=O)sc4c3nc(N)n3nc(-c5ccco5)nc43)CC2)c1` [Compound 22, 3-(4-(2-(5-amino-8-(furan-2-yl)-2-oxothiazolo[5,4-e][1,2,4]triazolo[1,5-c]pyrimidin-3(2H)-yl)ethyl)piperazin-1-yl)benzamide], the IC50 is, setting by setting: under setting [1], 1.4 nM; under setting [2], 6 nM; under setting [3], 352 nM.
Under setting [1], `Nc1nc2c(sc(=O)n2CCN2CCN(c3cccc(OCCO)c3)CC2)c2nc(-c3ccco3)nn12` [Compound 23, 5-amino-8-(furan-2-yl)-3-(2-(4-(3-(2-hydroxyethoxy)phenyl)piperazin-1-yl)ethyl)thiazolo[5,4-e][1,2,4]triazolo[1,5-c]pyrimidin-2(3H)-one] returned an IC50 of 0.6 nM.
In the case of `Nc1nc2c(sc(=O)n2CCN2CCN(c3ccc(S(=O)(=O)N4CCNCC4)cc3F)CC2)c2nc(-c3ccco3)nn12` [Compound 28, 5-amino-3-(2-(4-(2-fluoro-4-(piperazin-1-ylsulfonyl)phenyl)piperazin-1-yl)ethyl)-8-(furan-2-yl)thiazolo[5,4-e][1,2,4]triazolo[1,5-c]pyrimidin-2(3H)-one], the IC50 under setting [1] is 0.2 nM, the IC50 under setting [2] was determined as 4 nM and the IC50 under setting [3] was 115 nM.
Consider `CS(=O)(=O)c1ccc(N2CCN(CCn3c(=O)sc4c3nc(N)n3nc(-c5ccco5)nc43)CC2)c(F)c1` [Compound 29, 5-amino-3-(2-(4-(2-fluoro-4-(methylsulfonyl)phenyl)piperazin-1-yl)ethyl)-8-(furan-2-yl)thiazolo[5,4-e][1,2,4]triazolo[1,5-c]pyrimidin-2(3H)-one], for which the IC50 reads like this: under setting [1], 0.4 nM; under setting [2], 11 nM; under setting [3], 350 nM.
